Data as given in US6608080B1, “Morphan derivatives or salts thereof and medicinal compositions containing the same” (Hisamitsu Pharmaceutical Co., Ltd., priority 1999, dated 2003).
Structures can show the parent of a compound that is named as a salt.

Key:
[1] = system: glycine receptors; assay: ionic current induced by glycine in a single neuron of the tractus solitarius nucleus, whole cell patch clamp; assay type: cell-based, guinea pig; set-up: key to Action (class symbol): ±: no action; +: potentiated; −: inhibited; conditions: for type of effect on glycine-induced ionic currents (in words): classification, 1 mM, example 7 at 300 μM; for Action (% of control): mean ± S.E.
Method: In order to confirm the excellent actions of the derivatives described in the present invention on modification of glycine receptors, the actions of various morphan derivatives against ionic current induced by glycine were evaluated in a single neuron of the tractus solitarius nucleus of a guinea pig.
The isolation of a single neuron was performed according to the method described in Kay et al. (J. Neurosci. Meth., 16, 227-238, 1986). Guinea pigs, Hartley strain, 7-10 days of age, were anesthetized, bled and decapitated and the medullae were rapidly extracted. Sliced sections, thickness 400 μm, were prepared by using a microslicer. The sliced segments obtained were incubated at 37° C. for 30 minutes, and regions of the tractus solitarius nucleus were punched out under a stereoscope. The punched out specimens were trypsinized in a 100% oxygen atmosphere at 37° C. for 30-60 minutes. The trypsinized tissues were dispersed mechanically to obtain the single neurons. Measurements of the ionic currents activated by glycine were performed using the whole cell mode of the patch clamp method. The ionic currents obtained were recorded using a pen-recorder. Administration of the test compounds was performed by the Y-tube method in which the external fluid peripheral to the cells could be changed to the test drug solution within 2 msec. (Neurosci. Lett., 103, 56-63, 1989). Concentrations of the test compounds were 1 mM, except that the highly lipophilic compound of example 7 was examined at 300 μM. All data were expressed by mean±S.E.
In Table 1, the effects of the morphan derivatives on ionic currents in single neurons from the tractus solitarius nucleus, induced by glycine at 30 μM are summarized.

[2] = system: GABA-induced currents; assay: GABA-induced currents in a single neuron, whole cell patch clamp; assay type: cell-based, guinea pig; conditions: test compound 1 mM; GABA 30 μM (FIG. 1)
[3] = glycine 30 μM, test compound 1 mM
[4] = glycine 30 μM, test compound 300 μM

Row | SMILES | type of effect on glycine-induced ionic currents (in words) [1] | Action (class symbol) [1, 3] | Action (% of control) [1, 3] [%] | further results
1 | CN1CCC2CCCC1C2 (stereo not drawn) (as salt: hydrochloric acid salt) [Example 1, 2-Methyl-2-azabicyclo[3.3.1]nonane] |  |  |  | melting point: 147 to 152 °C
2 | CN1CCC2CCCC1C2 (stereo not drawn) [Example 1, 2-Methyl-2-azabicyclo[3.3.1]nonane] | weak action | ± | 99.7 ± 1.5 | 
3 | CCN1CCC2CCCC1C2 (stereo not drawn) [Example 2, 2-Ethyl-2-azabicyclo[3.3.1]nonane] | potentiation action | + | 150.6 ± 14.2 | rank of action on glycine-induced current ([1]; glycine 30 μM): strongest enhancing action; action against GABA-induced currents [2]: no action
4 | C=CCN1CCC2CCCC1C2 (stereo not drawn) [Example 3, 2-Allyl-2-azabicyclo[3.3.1]nonane] | potentiation action | + | 138.9 ± 5.6 | 
5 | CCC12CCCC(CCN1)C2 (stereo not drawn) [Example 4, 1-Ethyl-2-azabicyclo[3.3.1]nonane] | inhibitory action | − | 70.9 ± 2.7 | 
6 | CCCC12CCCC(CCN1)C2 (stereo not drawn) [Example 5, 1-Propyl-2-azabicyclo[3.3.1]nonane] | potentiation action | + | 138.1 ± 7.0 | 
7 | C1CC2CCN3CCCC3(C1)C2 (stereo not drawn) [Example 6, 5-Azatricyclo[6.3.1.0^1,5]dodecane] | potentiation action | + | 152.1 ± 16.6 | 
8 | C=CCC12CCCC(CCN1Cc1ccccc1O)C2 (stereo not drawn) [Example 7, 2-{[1-Allyl-(2-propenyl)-2-azabicyclo[3.3.1]nonane-2-yl]methyl}phenol] |  |  |  | concentration range of concentration-dependent inhibition of glycine-induced currents ([1]; FIG. 2, glycine 30 μM): 10 to 300 µM; Action (class symbol) [1, 4]: −; Action (% of control) [1, 4]: 60.5 ± 2.7%
